Several values for one entry are separate records, joined by “and”; a condition that tells them apart may be missing. Equal values may be shown once.
Tests used:
[1] = test system: OCT4, SOX2, SSEA-4, and AP; assay: Immunochemical / AP staining of induced colonies for pluripotency stem cell-specific markers; format: cell-based, human; settings: confocal microscopy; antibodies for OCT4, SOX2, SSEA-4; AP fluorogenic dye
Procedure: With respect to the pluripotency stem cells induced by the method of the present invention, whether to express stage-specific embryonic antigen4 (SSEA-4), alkaline phosphatase (AP), OCT4, and SOX2 as specific proteins to embryonic stem cells was analyzed by using antibodies thereof and an immunochemical staining method. During the staining process, cells were first fixed by using 4% paraformaldehyde and washed with PBS, and blocked with a 1% BSA solution. The cells were treated with primary antibodies for OCT4, SOX2, and SSEA-4 and reacted at 4° C. for 18 hours, and then washed with PBS, treated with secondary antibodies with fluorescence (FITC) to the primary antibodies, and reacted at room temperature for 1 hour. The cells were washed with PBS and then the expression was analyzed by using a confocal microscope. […] AP staining was performed with an alkaline phosphatase cell-permeable fluorogenic substrate dye, the AP fluorogenic dye was diluted in a DMEM F-12 culture solution to be treated in colonies, and then reacted for 20 to 30 min, washed with the DMEM F-12 culture solution two times, and the expression was analyzed by using a confocal microscope, and the result was illustrated in FIG. 17. […]

[2] = test system: mesenchymal stem cells derived from human umbilical cord; assay: Induction of pluripotency stem cells from mesenchymal stem cells (colony formation); format: cell-based; settings: DMEM F-12 basic medium plus 0.1 v/v % energy water
Procedure: An experiment for measuring induction ability of pluripotency stem cells from mesenchymal stem cells derived from human umbilical cord according to a concentration of the phlorotannin fraction prepared in Example 1-1 was performed. In a control group, DMEM F-12 (Gibco) as a dedicated medium of MSC, 10% FBS, 100 unit/ml penicillin, and 50 μg/ml streptomycin were used as a basic medium (Normal), and in an experimental group, mesenchymal stem cells derived from human which was subjected to three sub-cultures were used and phlorotannin fractions having concentrations of 1 μg/ml, 20 μg/ml, 50 μg/ml, 100 μg/ml, 400 μg/ml, 800 μg/ml, and 1000 μg/ml and 0.1 v/v % energy water (purified deionized water containing SiO2, Al2O3, TiO3, Fe2O3, CaO, Na2O, K2O, and LiO, STC) were added in the medium. The mesenchymal stem cells derived from human umbilical cord were isolated and washed and mononuclear cells were inoculated in a 6-well plate (dish) with 1×10^4 cells and maintained and incubated at 37° C. and 5% CO2.
An experiment for measuring induction ability of pluripotency stem cells from mesenchymal stem cells derived from human according to a concentration of compound 1 among the compounds isolated in Example 1-2 was performed. […]

`Oc1cc(O)cc(Oc2c(O)cc(O)c3c2Oc2c(O)cc(O)c(-c4c(O)cc(O)c5c4Oc4c(O)cc(Oc6c(O)cc(O)cc6O)c(Oc6cc(O)cc(O)c6)c4O5)c2O3)c1` [compound 1, 2-O-(2,4,6-trihydroxyphenyl)-6,6′-bieckol] was tested, and the “staining of colonies by pluripotency stem cell-specific markers” value [1] was “stained by OCT4, SOX2, SSEA-4, and AP”, the “time after which colony formation was observed” value ([2]; at the colony-forming concentrations) was 14 days and the “concentration at which colonies were formed” value ([2]; tested 1, 20, 50, 100, 400, 800, 1000 μg/ml, colonies only at stated concentrations) was 50 µg/mL and 100 µg/mL.

— patent US10131881B2, “Method for preparing induced pluripotency stem cells from mesenchymal stem cells by using phlorotannin fraction” (BBHC, priority 2014, dated 2018)
